Experimental findings from ChEMBL document CHEMBL5537130, “Structure-based design of potent FABP4 inhibitors with high selectivity against FABP3” (Eur J Med Chem, 2024) are described below.

The nature of data set [1]: in vitro. The note with it: human, liver microsomes.
Description: Metabolic stability in human liver microsomes assessed as half life at 1 uM preincubated with compound for 10 mins followed by NADPH addition and measured upto 60 mins by LC-MS/MS analysis
Data set [2] can be described thus: in vitro. The following applies: human, liver microsomes. This is another data set of the same source.
Description: Metabolic stability in human liver microsomes assessed as metabolic bioavailability at 1 uM preincubated with compound for 10 mins followed by NADPH addition and measured upto 60 mins by LC-MS/MS analysis
Data set [3] in a line: in vitro. The following applies: mouse, liver microsomes. (In general: Microsomes from liver hold many membrane-bound enzymes, among them those of drug oxidation.)
Description: Metabolic stability in mouse liver microsomes assessed as half life at 1 uM preincubated with compound for 10 mins followed by NADPH addition and measured upto 60 mins by LC-MS/MS analysis
Data set [4] is described as follows: in vitro. The following applies: mouse, liver microsomes. The source holds these as a separate data set.
Description: Metabolic stability in mouse liver microsomes assessed as metabolic bioavailability at 1 uM preincubated with compound for 10 mins followed by NADPH addition and measured upto 60 mins by LC-MS/MS analysis
Data set [5] has as its target Fatty acid-binding protein, heart (Homo sapiens, UniProt P05413).
Description: Displacement of 1,8-ANS from N-terminal 6His-tagged full length FABP3 (unknown origin) expressed in Escherichia coli ER2566 assessed as inhibition constant preincubated with compound for 10 mins followed by 1,8-ANS addition and measured after 3 mins by fluorescence based analysis
Data set [6] has as its target Fatty acid-binding protein, adipocyte (Homo sapiens, UniProt P15090).
Description: Displacement of 1,8-ANS from N-terminal 6His-tagged full length FABP4 (unknown origin) expressed in Escherichia coli ER2566 assessed as inhibition constant preincubated with compound for 10 mins followed by 1,8-ANS addition and measured after 3 mins by fluorescence based analysis
In another data set the test system is FABP3 versus FABP4. Description: in vitro. The following applies: probe 1,8-ANS.

What is called half-life is the time needed for the level to fall by half in the phase considered. A low value points to rapid decline. Usually Ki stands for a dissociation constant, usually derived from enzyme kinetics or from competition with a known ligand. A high value points to lower affinity.

Fatty acid-binding protein, heart, sequence (P05413 whole entry): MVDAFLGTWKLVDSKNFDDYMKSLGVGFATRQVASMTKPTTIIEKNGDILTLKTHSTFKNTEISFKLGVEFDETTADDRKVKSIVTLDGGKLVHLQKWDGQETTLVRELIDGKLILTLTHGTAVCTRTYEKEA
Fatty acid-binding protein, adipocyte, sequence (P15090 whole entry): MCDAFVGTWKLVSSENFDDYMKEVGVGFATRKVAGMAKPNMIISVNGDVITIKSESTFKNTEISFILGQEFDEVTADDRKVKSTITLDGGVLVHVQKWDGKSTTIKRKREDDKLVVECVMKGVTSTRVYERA
Description for FABP3 versus FABP4: Selectivity index, ratio of Ki for displacement of 1,8-ANS from N-terminal 6His-tagged full length FABP3 (unknown origin) expressed in Escherichia coli ER2566 to Ki for displacement of 1,8-ANS from N-terminal 6His-tagged full length FABP4 (unknown origin) expressed in Escherichia coli ER2566

As for `O=C(O)c1ccccc1Nc1cccc(Cl)c1-c1ccccc1`, the half-life at 1 h, 1 µM in the data set “in vitro [1]” stood at 33.5 min; in the data set “in vitro [3]”, 31.4 min. In addition, the Fh at 1 h, 1 µM amounted to 24% in “in vitro [2]” and 39.9% in “in vitro [4]”. On to `Cc1cccc(Nc2cccc(Cl)c2-c2ccccc2)c1C(=O)O`, for which the Ki in data set [5] amounted to 15 µM. Still for that read-out and setting: with `Cc1ccc(Nc2cccc(Cl)c2-c2ccccc2)c(C(=O)O)c1` the figure was 7.46 µM. The same measure, in the same setting: with `O=C(O)c1c(Cl)cccc1Nc1cccc(Cl)c1-c1ccccc1` the figure was 5.18 µM. Turning to `O=C(O)c1cc(F)ccc1Nc1cccc(Cl)c1-c1ccccc1`, affinity in data set [5] was put at a Ki of 0.37 µM. On to `COc1ccc(Nc2cccc(Cl)c2-c2ccccc2)c(C(=O)O)c1`, for which the figures for the Ki in data set [6] and in data set [5] were 0.359 µM and 2.19 µM, respectively. Also, the selectivity ratio in the data set with FABP3 versus FABP4 was found to be 6.

Turning to `O=C(O)c1cc(Cl)ccc1Nc1cccc(Cl)c1-c1ccccc1`, in data set [5], the Ki came out at 1.29 µM. In other words, the single-digit micromolar range. On to `Cc1cccc(Nc2cccc(Cl)c2-c2ccc3c(c2)CCO3)c1C(=O)O`, for which the affinity in data set [5] corresponds to a Ki of 15.4 µM. Still for that read-out and setting: as for `Cc1c(F)ccc(Nc2cccc(Cl)c2-c2ccccc2)c1C(=O)O`, the figure is 4 µM.

`COc1cccc(Nc2cccc(Cl)c2-c2ccccc2)c1C(=O)O` returned a Ki in data set [5] above 5 µM. Still for that read-out and setting: as for `Cc1c(F)ccc(Nc2cccc(Cl)c2-c2ccc3c(c2)CCO3)c1C(=O)O`, the figure is 7.51 µM.
